These results are taken from patent publication US20230312576A1, “4-(7H-PYRROLO[2,3-D]PYRIMIDIN-4-YL)-3,6-DIHYDROPYRIDINE-1-(2H)-CARBOXAMIDE DERIVATIVES AS LIMK AND/OR ROCK KINASES INHIBITORS FOR USE IN THE TREATMENT OF CANCER” (CENTRE NATIONAL DE LA RECHERCHE SCIENTIFIQUE, priority 2020, published 2023).

Like-named read-outs stand apart in the source and are kept apart here.

The subject of test [1] is cofilin phosphorylation, HeLa cells. The experiment in a line: Cofilin phosphorylation by Western Blot (anti-phospho-Ser3-cofilin) in HeLa cells. It counts as cell-based. To be noted: for inhibition at 25 µM: Homo sapiens. For orientation: A western blot detects proteins with antibodies after separation by electrophoresis.
The target of test [2] is LIMK1 (Homo sapiens (Human), UniProt P53667). As to the kind of experiment: Lanthascreen Eu binding assay (TR-FRET), inhibition of LIMK1.
In test [3] the target is ROCK1 (Homo sapiens (Human), UniProt Q13464). The experiment in a line: Z'Lyte assay, ROCK1 inhibition at a single concentration. It is filed as biochemical.
The target of test [4] is LIMK2 (Homo sapiens (Human), UniProt P53671). As to the kind of experiment: Lanthascreen Eu binding assay (TR-FRET), inhibition of LIMK2.
The target of test [5] is ROCK2 (Homo sapiens (Human), UniProt O75116). As to the kind of experiment: Z'Lyte assay, ROCK2 inhibition at a single concentration. It counts as biochemical.
[6] abbreviates: read-out: % inhibition Cofilin phosphorylation HeLa cells treated 2 h with 25 uM of inhibitor, HeLa cells, 2 h, 25 uM.
The mark [7] stands for this setting: read-out: % inhibition (ROCK1) 1 uM.
Setting [8] is: read-out: % inhibition (ROCK2) 1 uM.
[9] abbreviates: read-out: % inhibition (ROCK1) 1 uM, 1 uM.
[10] abbreviates: read-out: % inhibition (ROCK2) 1 uM, 1 uM.
[11] abbreviates: HeLa, 2 h, read-out: % inhibition of cofilin phosphorylation in HeLa cells (treatment 2 h, at 25 μM), Table 2, normalized to the control condition DMSO.

ROCK1, sequence (Q13464 whole entry): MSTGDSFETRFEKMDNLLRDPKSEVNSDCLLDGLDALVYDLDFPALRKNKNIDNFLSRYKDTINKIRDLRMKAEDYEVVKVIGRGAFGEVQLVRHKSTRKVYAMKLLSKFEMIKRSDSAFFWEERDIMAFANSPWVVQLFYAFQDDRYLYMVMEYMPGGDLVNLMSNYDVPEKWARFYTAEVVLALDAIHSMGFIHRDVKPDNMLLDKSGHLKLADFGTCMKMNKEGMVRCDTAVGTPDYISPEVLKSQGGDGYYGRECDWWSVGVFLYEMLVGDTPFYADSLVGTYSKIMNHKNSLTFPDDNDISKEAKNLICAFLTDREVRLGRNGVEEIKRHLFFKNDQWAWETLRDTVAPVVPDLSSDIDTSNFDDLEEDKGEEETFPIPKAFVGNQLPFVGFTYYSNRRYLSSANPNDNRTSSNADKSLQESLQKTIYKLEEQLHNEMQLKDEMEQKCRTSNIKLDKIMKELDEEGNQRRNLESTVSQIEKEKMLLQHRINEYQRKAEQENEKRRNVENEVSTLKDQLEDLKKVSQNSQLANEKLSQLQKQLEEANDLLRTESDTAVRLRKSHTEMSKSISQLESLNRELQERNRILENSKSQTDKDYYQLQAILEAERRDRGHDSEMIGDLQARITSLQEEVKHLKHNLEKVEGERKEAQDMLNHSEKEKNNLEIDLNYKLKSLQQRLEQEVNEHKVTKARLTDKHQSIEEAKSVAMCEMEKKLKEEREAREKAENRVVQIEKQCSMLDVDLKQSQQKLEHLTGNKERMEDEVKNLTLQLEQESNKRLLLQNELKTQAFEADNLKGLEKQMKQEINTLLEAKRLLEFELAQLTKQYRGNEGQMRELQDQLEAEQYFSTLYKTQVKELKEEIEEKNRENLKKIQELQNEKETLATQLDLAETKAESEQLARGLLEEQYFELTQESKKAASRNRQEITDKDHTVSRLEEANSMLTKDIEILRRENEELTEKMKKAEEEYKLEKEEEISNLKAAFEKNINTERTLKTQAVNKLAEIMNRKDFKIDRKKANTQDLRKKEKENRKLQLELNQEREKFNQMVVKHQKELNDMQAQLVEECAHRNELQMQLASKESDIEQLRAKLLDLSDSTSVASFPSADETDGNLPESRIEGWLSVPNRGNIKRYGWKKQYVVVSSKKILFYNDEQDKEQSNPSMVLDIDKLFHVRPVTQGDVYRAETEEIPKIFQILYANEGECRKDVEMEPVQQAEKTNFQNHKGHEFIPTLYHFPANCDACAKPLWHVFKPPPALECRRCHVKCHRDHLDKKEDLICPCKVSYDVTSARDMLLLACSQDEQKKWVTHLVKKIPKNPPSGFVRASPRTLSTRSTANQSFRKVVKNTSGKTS
ROCK2, sequence (O75116 whole entry): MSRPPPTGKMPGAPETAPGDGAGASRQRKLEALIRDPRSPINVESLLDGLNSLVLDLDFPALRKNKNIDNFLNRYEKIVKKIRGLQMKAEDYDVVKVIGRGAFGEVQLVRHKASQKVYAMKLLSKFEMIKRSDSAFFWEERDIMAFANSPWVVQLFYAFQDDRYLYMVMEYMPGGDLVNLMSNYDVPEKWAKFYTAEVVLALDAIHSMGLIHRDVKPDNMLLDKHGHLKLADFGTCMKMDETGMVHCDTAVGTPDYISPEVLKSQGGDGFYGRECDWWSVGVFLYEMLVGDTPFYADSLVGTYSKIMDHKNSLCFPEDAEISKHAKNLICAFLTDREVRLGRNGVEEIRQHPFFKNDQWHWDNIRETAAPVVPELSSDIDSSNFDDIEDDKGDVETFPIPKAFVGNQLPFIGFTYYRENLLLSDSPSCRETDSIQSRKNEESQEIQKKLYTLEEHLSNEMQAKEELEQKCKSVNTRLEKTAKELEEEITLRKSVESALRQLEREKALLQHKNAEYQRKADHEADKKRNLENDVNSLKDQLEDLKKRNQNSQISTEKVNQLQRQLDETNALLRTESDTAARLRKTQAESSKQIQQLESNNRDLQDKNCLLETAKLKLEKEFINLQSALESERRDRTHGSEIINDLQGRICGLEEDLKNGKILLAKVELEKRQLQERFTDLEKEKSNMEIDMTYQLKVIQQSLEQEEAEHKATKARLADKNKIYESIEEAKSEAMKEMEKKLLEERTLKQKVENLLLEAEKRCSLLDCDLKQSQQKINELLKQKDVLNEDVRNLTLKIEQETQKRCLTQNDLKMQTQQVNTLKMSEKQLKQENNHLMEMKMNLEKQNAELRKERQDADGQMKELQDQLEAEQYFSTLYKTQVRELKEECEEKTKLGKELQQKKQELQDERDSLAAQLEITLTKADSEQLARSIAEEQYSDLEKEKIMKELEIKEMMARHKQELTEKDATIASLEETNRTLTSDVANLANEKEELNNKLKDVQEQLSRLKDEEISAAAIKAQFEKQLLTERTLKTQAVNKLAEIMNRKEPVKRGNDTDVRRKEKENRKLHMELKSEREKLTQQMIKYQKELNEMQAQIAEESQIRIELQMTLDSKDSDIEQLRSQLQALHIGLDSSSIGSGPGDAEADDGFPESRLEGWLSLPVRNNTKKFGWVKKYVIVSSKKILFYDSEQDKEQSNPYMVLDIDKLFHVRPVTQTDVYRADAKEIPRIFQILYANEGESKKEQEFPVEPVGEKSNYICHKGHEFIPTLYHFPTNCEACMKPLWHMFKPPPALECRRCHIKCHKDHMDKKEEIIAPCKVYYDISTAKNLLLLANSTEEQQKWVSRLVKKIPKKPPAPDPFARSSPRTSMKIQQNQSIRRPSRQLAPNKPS
LIMK1, sequence (P53667 whole entry): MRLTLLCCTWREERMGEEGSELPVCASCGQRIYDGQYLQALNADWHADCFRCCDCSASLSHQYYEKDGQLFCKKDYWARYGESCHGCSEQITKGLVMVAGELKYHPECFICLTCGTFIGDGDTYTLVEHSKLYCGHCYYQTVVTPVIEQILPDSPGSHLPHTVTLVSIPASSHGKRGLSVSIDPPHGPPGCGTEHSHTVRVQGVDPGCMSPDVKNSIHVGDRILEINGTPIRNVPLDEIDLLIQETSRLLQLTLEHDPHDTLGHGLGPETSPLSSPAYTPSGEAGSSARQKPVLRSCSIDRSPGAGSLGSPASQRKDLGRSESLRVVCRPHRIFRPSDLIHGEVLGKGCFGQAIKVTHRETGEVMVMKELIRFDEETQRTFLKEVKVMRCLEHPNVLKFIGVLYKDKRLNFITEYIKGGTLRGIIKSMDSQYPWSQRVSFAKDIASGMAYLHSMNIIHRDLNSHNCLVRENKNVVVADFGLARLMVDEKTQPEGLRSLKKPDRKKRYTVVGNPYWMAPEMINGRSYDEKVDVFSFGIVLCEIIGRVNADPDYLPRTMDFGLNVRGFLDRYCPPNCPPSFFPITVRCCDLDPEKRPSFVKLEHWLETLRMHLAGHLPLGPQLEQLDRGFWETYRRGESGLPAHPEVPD
LIMK2, sequence (P53671 whole entry): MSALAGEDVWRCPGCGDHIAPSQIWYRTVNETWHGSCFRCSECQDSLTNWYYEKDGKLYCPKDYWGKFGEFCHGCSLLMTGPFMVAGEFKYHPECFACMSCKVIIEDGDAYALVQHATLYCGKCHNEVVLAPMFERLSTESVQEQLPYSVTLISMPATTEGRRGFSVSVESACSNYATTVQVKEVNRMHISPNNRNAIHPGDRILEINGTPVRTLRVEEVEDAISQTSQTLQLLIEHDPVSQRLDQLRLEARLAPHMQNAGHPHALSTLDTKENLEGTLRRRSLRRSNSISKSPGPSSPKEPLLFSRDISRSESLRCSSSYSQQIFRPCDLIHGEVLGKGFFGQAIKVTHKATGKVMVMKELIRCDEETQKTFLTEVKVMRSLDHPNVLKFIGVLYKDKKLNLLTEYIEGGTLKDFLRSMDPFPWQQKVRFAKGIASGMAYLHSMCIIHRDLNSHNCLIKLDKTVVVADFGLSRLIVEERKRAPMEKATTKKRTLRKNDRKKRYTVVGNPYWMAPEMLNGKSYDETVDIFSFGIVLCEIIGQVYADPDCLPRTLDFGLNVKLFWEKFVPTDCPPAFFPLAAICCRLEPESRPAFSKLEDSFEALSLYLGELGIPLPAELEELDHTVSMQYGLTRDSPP

A word on the inhibition: it is the change of the read-out against control, counted positive when it falls. As a reminder, the Ki is a dissociation constant, usually derived from enzyme kinetics or from competition with a known ligand. A low value points to tighter binding. With `O=C(Nc1cccc(Cl)c1)N1CC=C(c2ncnc3[nH]c4c(c23)CCCCC4)CC1` [Compound 117, N-(3-Chlorophenyl)-4-(5,6,7,8,9,10-hexahydrocyclohepta[4,5]pyrrolo[2,3-d]pyrimidin-4-yl)-3,6-dihydropyridine-1(2H)-carboxamide], in test [1] (setting [6]), the inhibition at 25 µM stood at 69.2%. The Ki in test [2] (Lanthascreen Eu binding assay) was 22 nM; in test [4] (Lanthascreen Eu binding assay) it was 61.3 nM. For the same compound, the inhibition at 1 µM in test [3] (setting [7]) is 4%; in test [5] (setting [8]), 7%.
Take `O=C(Nc1cccc(Br)c1)N1CC=C(c2ncnc3[nH]c4c(c23)CCCCC4)CC1` [Compound 118, N-(3-Bromophenyl)-4-(5,6,7,8,9,10-hexahydrocyclohepta[4,5]pyrrolo[2,3-d]pyrimidin-4-yl)-3,6-dihydropyridine-1(2H)-carboxamide]: the inhibition at 25 µM in test [1] (HeLa, 2 h, read-out: % inhibition Cofilin phosphorylation HeLa cells treated 2 h with 25 uM of inhibitor) came to 84.2%; in test [1] (HeLa, 2 h, read-out: % inhibition of cofilin phosphorylation in HeLa cells (treatment 2 h, at 25 μM)) it was 84.2%. For the same compound, the inhibitory constant (Ki) turned out to be 14.7 nM in test [2] and 40.4 nM in test [4]. The inhibition at 1 µM was 10% in test [3] (setting [7]) and -4% in test [5] (setting [8]).
Turning to `O=C(Nc1ccccc1)N1CC=C(c2ncnc3[nH]c4c(c23)CCC4)CC1` [Compound 119, N-Phenyl-4-(5,6,7,8-tetrahydrocyclopenta[4,5]pyrrolo[2,3-d]pyrimidin-4-yl)-3,6-dihydropyridine-1(2H)-carboxamide], the inhibition at 25 µM in test [1] (setting [6]) was determined as 64.1%. Further, the Ki in test [2] (Lanthascreen Eu binding assay) amounted to 7.98 nM; in test [4] (Lanthascreen Eu binding assay), 30.4 nM. Besides, the inhibition at 1 µM in test [3] (setting [7]) came to 0%; in test [5] (setting [8]) it was 11%.
Consider `COc1cccc(NC(=O)N2CC=C(c3ncnc4[nH]c5c(c34)CCC5)CC2)c1` [Compound 121, N-(3-Methoxyphenyl)-4-(5,6,7,8-tetrahydrocyclopenta[4,5]pyrrolo[2,3-d]pyrimidin-4-yl)-3,6-dihydropyridine-1(2H)-carboxamide], for which the inhibition at 25 µM in test [1] (setting [6]) is 64.5%. Further, the Ki in test [2] (Lanthascreen Eu binding assay) was 6.1 nM; in test [4] (Lanthascreen Eu binding assay) it was 25.2 nM. Also, the inhibition at 1 µM in test [3] (setting [9]) came to 3%; in test [5] (setting [10]) it was 18%.
On the same counts, the results for `N#Cc1cccc(NC(=O)N2CC=C(c3ncnc4[nH]c5c(c34)CCC5)CC2)c1` [Compound 127, N-(3-Cyanophenyl)-4-(7,9,11-triazatricyclo[6.4.0.02,6]dodeca-1(8),2(6),9,11-tetraen-12-yl)-3,6-dihydropyridine-1(2H)-carboxamide] are 68.5%, 8.19 nM, 39.3 nM, 3% and 20%.
As to `CCc1cccc(NC(=O)N2CC=C(c3ncnc4[nH]c5c(c34)CCC5)CC2)c1` [Compound 129, N-(3-Ethylphenyl)-4-(7,9,11-triazatricyclo[6.4.0.02,6]dodeca-1(8),2(6),9,11-tetraen-12-yl)-3,6-dihydropyridine-1(2H)-carboxamide], the inhibition at 25 µM in test [1] (setting [11]) and in test [1] (setting [6]) was 84.5% in each case. The Ki worked out at 16.6 nM in test [2] (Lanthascreen Eu binding assay) and 54.9 nM in test [4] (Lanthascreen Eu binding assay). Moreover, the inhibition at 1 µM in test [3] (setting [9]) came to 18%; in test [5] (setting [10]), 11%.
With `O=C(Nc1cccc(N2CCOCC2)c1)N1CC=C(c2ncnc3[nH]c4c(c23)CCC4)CC1` [Compound 130, N-(3-morpholinophenyl)-4-(7,9,11-triazatricyclo[6.4.0.02,6]dodeca-1(8),2(6),9,11-tetraen-12-yl)-3,6-dihydropyridine-1(2H)-carboxamide], the inhibition at 25 µM in test [1] (setting [11]) and in test [1] (setting [6]) was 79.2% throughout. The inhibition constant (Ki) in test [2] (Lanthascreen Eu binding assay) turned out to be 26.7 nM; in test [4] (Lanthascreen Eu binding assay), 87.5 nM. In addition, the values for the inhibition at 1 µM in test [3] (setting [9]) and in test [5] (setting [10]) were 26% and 0%, respectively.
On to `CN(C)C(=O)Nc1cccc(NC(=O)N2CC=C(c3ncnc4[nH]c5c(c34)CCC5)CC2)c1` [Compound 131, N-[3-(Dimethylcarbamoylamino)phenyl]-4-(7,9,11-triaza-tricyclo[6.4.0.02,6]dodeca-1(8),2(6),9,11-tetraen-12-yl)-3,6-dihydropyridine-1(2H)-carboxamide], for which the inhibition at 25 µM in test [1] (setting [11]) and in test [1] (setting [6]) was 82.9% each time. Further, the Ki in test [2] (Lanthascreen Eu binding assay) was 46.9 nM; in test [4] (Lanthascreen Eu binding assay), 8.73 nM. Further, the inhibition at 1 µM in test [3] (setting [9]) is 14%; in test [5] (setting [10]), 1%.
As for `CN(C)Cc1cccc(NC(=O)N2CC=C(c3ncnc4[nH]c5c(c34)CCC5)CC2)c1` [Compound 132, N-[3-[(dimethylamino)methyl]phenyl]-4-(7,9,11-triaza-tricyclo[6.4.0.02,6]dodeca-1(8),2(6),9,11-tetraen-12-yl)-3,6-dihydropyridine-1(2H)-carboxamide], the inhibition at 25 µM in test [1] (setting [11]) and in test [1] (setting [6]) was 76.2% each time. The Ki in test [2] (Lanthascreen Eu binding assay) is 389 nM; in test [4] (Lanthascreen Eu binding assay), 415 nM. For the same compound, the results for the inhibition at 1 µM in test [3] (setting [9]) and in test [5] (setting [10]) were -6% and 2%, respectively.
Consider `CNC(=O)c1cccc(NC(=O)N2CC=C(c3ncnc4[nH]c5c(c34)CCC5)CC2)c1` [Compound 133, N-[3-(Methylcarbamoyl)phenyl]-4-(7,9,11-triazatricyclo [6.4.0.02,6]dodeca-1(8),2(6),9,11-tetraen-12-yl)-3,6-dihydropyridine-1(2)-carboxamide], for which the “% inhibition Cofilin phosphorylation HeLa cells treated 2 h with 25 uM of inhibitor” value in test [1] (HeLa cells, 2 h, 25 uM) worked out at 78.8%. In test [1] (Table 2, normalized to the control condition DMSO), the “% inhibition of cofilin phosphorylation in HeLa cells (treatment 2 h, at 25 μM)” value is on record as 78.8%. Besides, the figures for the Ki in test [2] (Lanthascreen Eu binding assay) and in test [4] (Lanthascreen Eu binding assay) were 49.1 nM and 40.5 nM, respectively. Also, the “% inhibition (ROCK1) 1 uM” value in test [3] (1 uM) was −19%. Besides, the “% inhibition (ROCK2) 1 uM” value in test [5] (1 uM) is 1%.
On to `CN(C)C(=O)c1cccc(NC(=O)N2CC=C(c3ncnc4[nH]c5c(c34)CCC5)CC2)c1` [Compound 134, N-[3-(Dimethylcarbamoyl)phenyl]-4-(7,9,11-triazatricyclo [6.4.0.02,6]dodeca-1(8),2(6),9,11-tetraen-12-yl)-3,6-dihydropyridine-1(2H)-carboxamide], for which the inhibition at 25 µM in test [1] (setting [11]) and in test [1] (setting [6]) was 77.1% throughout. In addition, the Ki in test [2] (Lanthascreen Eu binding assay) is 36.1 nM; in test [4] (Lanthascreen Eu binding assay), 33.4 nM. In addition, the inhibition at 1 µM in test [3] (setting [9]) is -20%; in test [5] (setting [10]), -5%.
For the compound `COCOCc1cccc(NC(=O)N2CC=C(c3ncnc4[nH]c5c(c34)CCC5)CC2)c1` [Compound 135, N-[3-(Methoxymethoxymethyl)phenyl]-4-(7,9,11-triaza-tricyclo[6.4.0.02,6]dodeca-1(8),2(6),9,11-tetraen-12-yl)-3,6-dihydropyridine-1(2H)-carboxamide], the inhibition at 25 µM in test [1] (setting [11]) and in test [1] (setting [6]) was 85% throughout. The figures for the inhibition constant (Ki) in test [2] (Lanthascreen Eu binding assay) and in test [4] (Lanthascreen Eu binding assay) were 22.1 nM and 36.2 nM, respectively. Also, the values for the inhibition at 1 µM in test [3] (setting [9]) and in test [5] (setting [10]) were -14% and -3%, respectively.
Regarding `COc1ccc(-c2cccc(NC(=O)N3CC=C(c4ncnc5[nH]c6c(c45)CCC6)CC3)c2)cc1` [Compound 136, N-[3-(4-Methoxyphenyl)phenyl]-4-(7,9,11-triaza-tricyclo[6.4.0.02,6]dodeca-1(8),2(6),9,11-tetraen-12-yl)-3,6-dihydropyridine-1(2H)-carboxamide], the inhibition at 25 µM in test [1] (setting [11]) and in test [1] (setting [6]) was 85.5% each time. For the same compound, the Ki is 2.75 nM in test [2] (Lanthascreen Eu binding assay) and 21.6 nM in test [4] (Lanthascreen Eu binding assay). The inhibition at 1 µM in test [3] (setting [9]) is 6%; in test [5] (setting [10]), 11%.
